{
  "source": "patent US20250161309A1",
  "about": "“TOPICAL COMPOSITIONS AND USES THEROF” (TOPADUR PHARMA AG, priority 2022, published 2025)",
  "tested_on": "C57BL/6 mouse model of alopecia",
  "test": "Topical administration and hair growth in C57BL/6 mouse model of alopecia (telogen phase, clipped dorsal skin)",
  "format": "in vivo",
  "settings": "for animals with visual melanogenesis in peeled skin: end of study; for day of skin colour change from pink to light grey (transition from telogen to anagen phase): after hair growth induction; for adverse effects in relation to general health or body weight: topical twice daily, 5 days/week, 4 weeks, compared to vehicle group",
  "description": "Dorsal hair of C57BL/6 mouse is known to have a time synchronized hair cycle. From about 18-21 days of age (2-3 weeks old) and 47-95 days of age (6-14 weeks old), the dorsal hair are in the telogen/quiescent phase (visually pink skin) [Lee B H, Lee J S, Kim Y C. Hair growth-promoting effects of lavender oil in C57BL/6 mice. Toxicol Res. (2016) 32(2):103-108; Choi H I, Kang B M, Jang J, Hwang S T, Kwon O. Novel effect of sildenafil on hair growth. Biochem Biophys Res Commun. (2018) 505(3):685-691]. C57BL/6 mouse therefore is a well-established model for studying hair growth promotion.\nMale and female C57BL/6 mice of 6 to 9 weeks of age in stable telogen phase of hair growth cycle were used (obtained from Vivo Bio Tech Ltd, Telangana, India).\n50 μL of a clear solution of respective 0.02%, 0.002% and 0.0002% (w/v) concentrations of Cpd 1 in the corresponding vehicle (PEG-400:EtOH/7:3) (PEG-400: Central Drug House Ltd. Dehli, India; Ethanol: Changshu Hongsheng fine chemicals Co. Ltd. China) and the positive control, 2% solution (female) or 5% (male) (w/v) Minoxidil (Chemieliva, China) in the corresponding vehicle (PEG-400:EtOH/7:3) were topically applied to the clipped area on the dorsal back of the mice. The solutions covered a circular area of approximately 2 cm^2. The treatment regimen was twice daily application for 5 days/week for total of 4 weeks.\nThe selected animals on day 1 weighted on average 20.05 g±0.17 ranging from 19.8 to 20.2 g. The hair on the dorsal back (approx. 4×4 cm^2) of these animals were clipped without touching the skin of the animal, using an electric clipper, on day 0 before the treatment with Cpd 1 and the hair was collected. The treatment followed by visual analysis for anagen onset, skin color change and appearance of any hair growth were monitored. After completion of the experiment, the dorsal skin of all the animals was removed and visual melanogenesis was reported. The skin sections were then preserved in 10% formalin solution for further histopathology analysis.\nAnimals were observed during 30 days and the hair growth score was recorded on daily basis. The criteria for scoring of hair growth is as follows: no hair growth, pink skin—score 0; skin colour changes from pink to grey/light grey without visible hair growth—score 0.5 onset of anagen (skin colour changes from grey/light grey to dark grey/black without visible hair growth)—score 1; sparse hair growth—score 1.5; diffuse short hair growth—score 2, moderate hair growth—score 2.5 and dense, normal coat hair—score 3 (Lee B H, Lee J S, Kim Y C. Hair growth-promoting effects of lavender oil in C57BL/6 mice. Toxicol Res. (2016) 32(2):103-108).\nPhotographs of the animals were captured before the initiation and during the course of the study.\nAfter completion of the experiments all animals were sacrificed by euthanasia (Choi H I, Kang B M, Jang J, Hwang S T, Kwon O. Novel effect of sildenafil on hair growth. Biochem Biophys Res Commun. (2018) 505(3):685-691). The dorsal skin of each animal was then removed by peeling. The peeled skin was spread and checked visually for the induction of melanogenesis indicated by visual blackening on the reverse side of the skin. The skin samples were evenly spread on a pre-labelled glass slide and kept in 10% formalin until further use. Later, the skin samples were embedded in paraffin and sectioned at 5 microns using a microtome and the corresponding slides per animal were prepared. The slides obtained were used for Haematoxylin & Eosin (H&E) staining and in the transverse and longitudinal sections' photomicrographs data, the total number of follicles in the dermis and the sub cutis were determined for each animal. The skin thickness was measured using Image J 1.44 software.\nThe statistical analyses were performed using GraphPad Prism 9.0.0 software. Statistical significance was determined by One-way or Two-Way ANOVA followed by Tukey's multiple comparison test. […]",
  "data": [
    {"smiles": "CCCOc1ccc(S(=O)(=O)N2CCC(CCO[N+](=O)[O-])(CCO[N+](=O)[O-])CC2)cc1-c1nc2c(CCC)cn(CC)c2c(=O)[nH]1", "note": "[Cpd 1, (1-((3-(5-ethyl-4-oxo-7-propyl-4,5-dihydro-3H-pyrrolo[3,2-d]pyrimidin-2-yl)-4-propoxyphenyl)sulfonyl)piperidine-4,4-diyl)bis(ethane-2,1-diyl) dinitrate]", "values": [
      {"measurement": "number of follicles in the subcutis layer of the skin and total follicle counts compared to control group", "setting": "female mice", "value": "considerable higher number"},
      {"measurement": "animals with visual melanogenesis in peeled skin", "setting": "female mice, 0.0002% (w/v)", "value": "2/5"},
      {"measurement": "anagen hair follicles (histology, H&E) compared to vehicle and 2% Minoxidil", "setting": "female mice, 0.0002% and 0.002% groups", "value": "more"},
      {"measurement": "day of skin colour change from pink to light grey (transition from telogen to anagen phase)", "setting": "female mice, 0.002% (w/v)", "value": 10, "unit": "day"},
      {"measurement": "hair growth score among treatment groups", "setting": "female mice, 0.002% (w/v), at day 30, followed by low dose groups and Minoxidil group", "value": "maximal"},
      {"measurement": "animals with visual melanogenesis in peeled skin", "setting": "female mice, 0.002% (w/v)", "value": "2/5"},
      {"measurement": "hair growth (score) compared to vehicle group", "setting": "female mice, 0.002% (w/v), from day 26 on", "value": "significantly higher"},
      {"measurement": "skin thickness compared to vehicle and 2% Minoxidil groups", "setting": "female mice, Cpd 1 treatment", "value": "increased"},
      {"measurement": "area of black skin compared to control groups", "setting": "female mice, at day 24", "value": "larger"},
      {"measurement": "adverse effects in relation to general health or body weight", "setting": "female mice", "value": "No adverse effects"},
      {"measurement": "number of follicles in the subcutis layer of the skin and total follicle counts compared to control group", "setting": "male mice", "value": "considerable higher number"},
      {"measurement": "skin thickness compared to vehicle group", "setting": "male mice, 0.002% (w/v)", "value": "increased"},
      {"measurement": "hair growth (score) compared to vehicle", "setting": "male mice, 0.002% (w/v) in PEG-400:EtOH/7:3, from day 5 on", "value": "significantly higher"},
      {"measurement": "day of skin colour change from pink to light grey (transition from telogen to anagen phase)", "setting": "male mice, 0.002% (w/v)", "value": 10, "unit": "day"},
      {"measurement": "hair growth compared to vehicle group", "setting": "male mice, 0.002% (w/v), at day 22", "value": "significantly higher"},
      {"measurement": "animals with visual melanogenesis in peeled skin", "setting": "male mice, 0.002% (w/v)", "value": "2/5"},
      {"measurement": "hair growth (score) compared to 5% Minoxidil", "setting": "male mice, 0.002% (w/v), from day 15", "value": "significant increase"},
      {"measurement": "anagen hair follicles (histology, H&E)", "setting": "male mice, Cpd 1-treated groups", "value": "more"},
      {"measurement": "adverse effects in relation to general health or body weight", "setting": "male mice", "value": "No adverse effects"}
    ]}
  ]
}
